Where two headings read alike, the source gives them in different places.
Legend:
SARS-CoV-2 [1] = settings: for outcome against confirmation criteria of the SARS-CoV-2 counter-screen (<50% infected cell, >75% total cells): single dose of 5 µM
HCoV-229E [2] = assay: microbe, parasite or virus in culture; type: cell-based, Homo sapiens sapiens; settings: Human coronavirus 229E
SARS-CoV-2 [3] = settings: Calu-3 cells; for SI (CC50/IC50): CC50 from LDH assay / IC50 from qRT-PCR
SARS-CoV-2 [4] = assay: microbe, parasite or virus in culture; settings: Severe acute respiratory syndrome coronavirus 2, Calu-3, 48 h
in vitro [5] = settings: for viability: Anti-SARS-CoV-2 screening on Calu-3 cells: viability [% of control], Calu-3 cells
SARS-CoV-2 [6] = type: cell-based; settings: dose range 0.15 µM to 10 µM, viral genome copies in apical washes and cellular lysates
SARS-CoV-2 [7] = settings: cited from earlier work
[8] = system: primary human airway epithelial cells; settings: dose range 0.15 µM to 10 µM, cellular lysates
HCoV-229E [9] = assay: Twelve-step dose titration against HCoV-229E infection on Huh-7.5/F-Luc/Cas9 cells; type: cell-based, Homo sapiens sapiens; settings: Human coronavirus 229E, Huh7.5, twelve-step 1:3 dilutions, n = 3
in vitro [10] = settings: human
[11] = Calu-3 cells, immunofluorescence imaging
[12] = Huh7.5, 48 h, read-out: IC50 against HCoV-229E
[13] = Huh7.5, read-out: IC50 (µM), HCoV 229E
[14] = Huh-7.5/F-Luc cells, maximum tested dose 5 µM

Row | SMILES | Anti-SARS-CoV-2 screening on Calu-3 cells: intracellular SARS-CoV-2 infection measured via immunofluorescence imaging [% of control] (SARS-CoV-2 [1]; [11]) | viability at 48 h, 5 µM (in vitro [5]) | IC50 (HCoV-229E [2]; [13]) | CC50 (µM) (Huh-7.5/F-Luc cells; [14]) | viability at 5 µM (in vitro [10]) | viability (in vitro [5]) | also measured
1 | CC1(C)CC[C@]2(C(=O)O)CC[C@]3(C)[C@H](C(=O)C=C4[C@@]5(C)C=C(C#N)C(=O)C(C)(C)[C@@H]5CC[C@]43C)[C@@H]2C1 [Bardoxolone, reference compound] | 95.03 % of control | 118% | – | – | – | – | outcome against confirmation criteria of the SARS-CoV-2 counter-screen (<50% infected cell, >75% total cells) (SARS-CoV-2 [1]; Calu-3 cells): did not meet the inclusion criteria; IC50 (HCoV-229E [2]; Huh7.5): 0.04 µM; IC50 (HCoV-229E [2]; [12]): 0.037 µM; SI (CC50/IC50) (SARS-CoV-2 [3]): 3.90; IC50 (SARS-CoV-2 [4]): 1890 nM; IC90 (SARS-CoV-2 [4]): 7030 nM; antiviral activity against SARS-CoV-2 in HAE cells (SARS-CoV-2 [6]): the reduction in viral genome copies could not be separated from an increase in cytotoxicity
2 | C=C(CC(=O)OCCCCCCCC)C(=O)O [4-OI, 4-octyl-itaconate] | – | – | – | – | – | – | anti-SARS-CoV-2 effects (SARS-CoV-2 [7]): anti-SARS-CoV-2 effects at high concentrations
3 | CCc1cnn2c(NCc3ccc[n+]([O-])c3)cc(N3CCCC[C@H]3CCO)nc12 [Dinaciclib, reference compound] | – | 29.7% | – | – | – | – | Anti-SARS-CoV-2 screening on Calu-3 cells: intracellular SARS-CoV-2 infection measured via immunofluorescence imaging [% of control] (SARS-CoV-2 [1]): 72.14 % of control; outcome against confirmation criteria of the SARS-CoV-2 counter-screen (<50% infected cell, >75% total cells) (SARS-CoV-2 [1]; Calu-3 cells): did not meet our stringent confirmation criteria; virus load in the culture fluid (SARS-CoV-2 [3]; screening dose 5 µM, 48 hours post-inoculation): reduced virus load; inhibition of SARS-CoV-2 infection (SARS-CoV-2 [7]; Vero E6 and A549/ACE2 cells): nanomolar efficacy; CC50 (µM) (Huh-7.5/F-Luc cells): greater than maximum tested dose
4 | CCC(CC)COC(=O)[C@H](C)N[P@](=O)(OC[C@H]1O[C@@](C#N)(c2ccc3c(N)ncnn23)[C@H](O)[C@@H]1O)Oc1ccccc1 [Remdesivir] | 1.09 % of control | – | – | – | – | – | IC50 (HCoV-229E [2]; Huh7.5): 0.02 µM; IC50 (HCoV-229E [2]; [12]): 0.0157 µM; SI (CC50/IC50) (SARS-CoV-2 [3]): > 6.76; cytotoxicity in HAE cells, GAPDH mRNA [8]: without reducing GAPDH mRNA levels; CC50 (µM) (Huh-7.5/F-Luc cells; Huh-7.5 cells, dose series, maximum tested dose 5 µM): greater than maximum tested dose; IC50 (SARS-CoV-2 [4]): 180 nM; IC90 (SARS-CoV-2 [4]): 310 nM; IC50 (HCoV-229E [9]): 0.83 nM; antiviral activity against SARS-CoV-2 in HAE cells (SARS-CoV-2 [6]): dose dependently inhibited SARS-CoV-2 infection
5 | CC(Cc1ccccc1)NCCC(c1ccccc1)c1ccccc1 (centres unmarked) [RFM-000-835-5] | 102.68 % of control | 102% | 1.53 µM | greater than maximum tested dose | 140% | – | –
6 | O=c1[nH]c2cc(Cl)ccc2n1C1CCN(CCCC(c2ccc(F)cc2)c2ccc(F)cc2)CC1 [RFM-008-181-2] | 97.91 % of control | – | 1.84 µM | greater than maximum tested dose | 121% | 107% | –
7 | CC(=O)[C@]1(O)Cc2c(O)c3c(c(O)c2[C@@H](O[C@H]2C[C@H](N)[C@H](O)[C@H](C)O2)C1)C(=O)c1ccccc1C3=O [RFM-000-458-0] | – | 15% | 1.55 µM | – | 103% | – | Anti-SARS-CoV-2 screening on Calu-3 cells: intracellular SARS-CoV-2 infection measured via immunofluorescence imaging [% of control] (SARS-CoV-2 [1]): 139.58 % of control; CC50 (µM) (Huh-7.5/F-Luc cells): greater than maximum tested dose
8 | COc1cccc(CCc2ccccc2OCC[C@@H]2C[C@@H](O)CN2C)c1 [RFM-011-187-5] | 105.26 % of control | – | 2.43 µM | greater than maximum tested dose | 131% | 102% | –
9 | CCN(CC)CCOc1ccc(-c2nc3cc(Cl)ccc3s2)cc1 [RFM-005-834-4] | 104.24 % of control | – | 1.51 µM | greater than maximum tested dose | 91.6% | 88.8% | –
10 | CCOC(=O)/C=C/[C@H](C[C@@H]1CCNC1=O)NC(=O)[C@@H](CC(=O)[C@@H](NC(=O)c1cc(C)on1)C(C)C)Cc1ccc(F)cc1 [RFM-010-414-3] | 93.65 % of control | – | 4.19 µM | greater than maximum tested dose | 94.6% | 100% | –

Reference: article PMC10916382, “Repurposing screen identifies novel candidates for broad-spectrum coronavirus antivirals and druggable host targets” (Antimicrobial Agents and Chemotherapy, 2024)
